Experimental data as given in US10919896B2, “Preparation and uses of pyrimidinone derivatives” (Cancer Research Technology Limited, priority 2016, dated 2021).

target: Cdc7/ASK (Homo sapiens, UniProt O00311); assay: Cdc7 Biochemical Assay Method 1: 384 well ELISA, whole protein substrate MCM2, antibody against Phospho MCM2 (S53); set-up: purchased; conditions: 2 μM ATP, read-out: Biochemical Method 1 (pIC50) (converted)
Outline: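 MCM2 protein substrate was coated on nickel-chelate plates, then Cdc7/ASK was added with 2 μM ATP in 50 mM Tris-HCl pH 8.5, 10 mM MgCl2, 1 mM DTT, 4% DMSO, 90 min at room temperature. Phospho-MCM2 (S53) was detected by ELISA with an AP secondary and PNPP absorbance. IC50 was derived from % inhibition versus no-compound and no-enzyme controls.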

Sequence of Cdc7/ASK (O00311 whole entry): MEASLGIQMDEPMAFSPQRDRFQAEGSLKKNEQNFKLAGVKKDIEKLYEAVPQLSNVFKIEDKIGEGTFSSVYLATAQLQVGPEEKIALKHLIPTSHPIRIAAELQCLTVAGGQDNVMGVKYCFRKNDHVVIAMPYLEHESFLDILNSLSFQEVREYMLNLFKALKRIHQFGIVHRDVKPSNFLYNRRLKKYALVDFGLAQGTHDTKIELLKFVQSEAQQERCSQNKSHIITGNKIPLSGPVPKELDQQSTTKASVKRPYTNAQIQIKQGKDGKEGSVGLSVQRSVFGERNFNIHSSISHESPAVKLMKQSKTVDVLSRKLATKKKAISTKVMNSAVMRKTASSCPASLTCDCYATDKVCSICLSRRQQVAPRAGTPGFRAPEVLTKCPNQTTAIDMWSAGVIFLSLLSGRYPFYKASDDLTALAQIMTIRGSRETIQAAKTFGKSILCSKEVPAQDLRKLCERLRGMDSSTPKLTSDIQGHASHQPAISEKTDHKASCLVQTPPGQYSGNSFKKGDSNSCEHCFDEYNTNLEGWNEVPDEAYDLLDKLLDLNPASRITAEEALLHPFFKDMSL
Sequence of Cdc7/ASK (Q9UBU7 whole entry partner): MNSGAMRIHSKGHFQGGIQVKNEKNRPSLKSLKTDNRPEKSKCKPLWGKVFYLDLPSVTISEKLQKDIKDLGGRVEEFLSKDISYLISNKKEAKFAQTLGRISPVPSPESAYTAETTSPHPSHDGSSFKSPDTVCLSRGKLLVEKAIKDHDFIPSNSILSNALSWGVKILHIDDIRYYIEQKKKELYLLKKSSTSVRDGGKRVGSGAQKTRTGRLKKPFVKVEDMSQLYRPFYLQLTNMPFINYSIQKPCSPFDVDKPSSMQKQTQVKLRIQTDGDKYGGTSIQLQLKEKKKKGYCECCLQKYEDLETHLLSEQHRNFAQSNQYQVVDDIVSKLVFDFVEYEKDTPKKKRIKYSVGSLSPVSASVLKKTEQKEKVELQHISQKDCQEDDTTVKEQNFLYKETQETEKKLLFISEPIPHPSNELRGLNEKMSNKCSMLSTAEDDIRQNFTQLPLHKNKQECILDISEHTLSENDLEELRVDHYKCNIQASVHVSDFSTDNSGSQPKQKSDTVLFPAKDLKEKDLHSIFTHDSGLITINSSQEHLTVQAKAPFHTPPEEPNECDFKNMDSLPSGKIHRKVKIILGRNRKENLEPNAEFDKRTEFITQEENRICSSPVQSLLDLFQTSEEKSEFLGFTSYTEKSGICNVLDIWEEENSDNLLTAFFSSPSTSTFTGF

| SMILES | IC50 |
| --- | --- |
| O=c1[nH]c(-c2ccnc(F)c2)nc(C2CCOCC2)c1Cl [Compound 13, 5-chloro-2-(2-fluoro-pyridin-4-yl)-6-(tetrahydro-pyran-4-yl)-3H-pyrimidin-4-one] | 1.23 nM |
| CC(C)CN1CCC(c2nc(-c3ccncc3)[nH]c(=O)c2Cl)CC1 [Compound 39, 5-chloro-4-(1-isobutyl-4-piperidyl)-2-(4-pyridyl)-1H-pyrimidin-6-one] | 8.32 nM |
| O=c1[nH]c(-c2ccncc2)nc(N2C[C@H]3C[C@@H]2CN3)c1Cl [Compound 161] | 31.6 nM |
| O=c1[nH]c(-c2ccncc2)nc(N2CCNC(c3ccc(Cl)cc3)C2)c1Cl (stereo not drawn) [Compound 168] | 9.33 nM |

target: Cdc7/Dbf4 (Homo sapiens, UniProt O00311); assay: Cdc7 Biochemical Assay Method 3: Cdc7/Dbf4 Enzyme TR-FRET Assay measuring pS40MCM2; conditions: 1 μM ATP, read-out: Biochemical Method 3 (pIC50) (converted)
Sequence (O00311 whole entry): as the sequence (O00311 whole entry) above
Sequence (Q9UBU7 whole entry partner): as the sequence (Q9UBU7 whole entry partner) above
Protocol: This protocol describes a method for assaying a compounds' ability to inhibit Cdc7 activity by measuring pS40MCM2 levels in a Cdc7/Dbf4 Enzyme TR-FRET Assay.
2.5 nM Cdc7/Dbf4 was incubated with 100 nM of biotin-labelled peptide 35-TDALTS(pS)PGRDLP in the presence of 1 μM ATP at 25° C. for 120 minutes. The phosphorylation of the peptide was detected using TR-FRET. Anti-Mcm2 (pS40) antibody, Terbium anti-rabbit secondary antibody and Streptavidin-Alexa Fluor488 form the detection system.

| SMILES | IC50 |
| --- | --- |
| O=c1[nH]c(-c2ccnc(F)c2)nc(C2CCOCC2)c1Cl [Compound 13, 5-chloro-2-(2-fluoro-pyridin-4-yl)-6-(tetrahydro-pyran-4-yl)-3H-pyrimidin-4-one] | 0.759 nM |
| CC(C)CN1CCC(c2nc(-c3ccncc3)[nH]c(=O)c2Cl)CC1 [Compound 39, 5-chloro-4-(1-isobutyl-4-piperidyl)-2-(4-pyridyl)-1H-pyrimidin-6-one] | 5.75 nM |
| O=c1[nH]c(-c2ccncc2)nc(N2C[C@H]3C[C@@H]2CN3)c1Cl [Compound 161] | 1.74 nM |
| O=c1[nH]c(-c2ccncc2)nc(N2CCNC(c3ccc(Cl)cc3)C2)c1Cl (stereo not drawn) [Compound 168] | 1.91 nM |
| CCN(c1nc(-c2ccnc(F)c2)[nH]c(=O)c1Cl)C1CCOCC1 [Compound 266] | 36.3 nM |
| CN(c1nc(-c2ccnc(F)c2)[nH]c(=O)c1Cl)[C@H]1CCCNC1 [Compound 267] | 3.89 nM |
| CN(c1nc(-c2ccnc(F)c2)[nH]c(=O)c1Cl)[C@@H]1CCCNC1 [Compound 268] | 4.27 nM |
| O=c1[nH]c(-c2ccnc(F)c2)nc(N2CCn3cnnc3C2)c1Cl [Compound 269] | 0.525 nM |
| CC(C)c1nnc2n1CCN(c1nc(-c3ccnc(F)c3)[nH]c(=O)c1Cl)C2 [Compound 270] | 20.9 nM |
| CC(=O)N[C@H]1CCN(c2nc(-c3ccnc(F)c3)[nH]c(=O)c2Cl)C1 [Compound 274] | 5.01 nM |
| O=c1[nH]c(-c2ccnc(F)c2)nc(N2CCCC2)c1Cl [Compound 276] | 6.31 nM |
| C[C@H]1CCCN1c1nc(-c2ccnc(F)c2)[nH]c(=O)c1Cl [Compound 278] | 14.8 nM |
| C[C@H]1CCCCN1c1nc(-c2ccnc(F)c2)[nH]c(=O)c1Cl [Compound 280] | 0.871 nM |
| CO[C@H]1CCCN(c2nc(-c3ccnc(F)c3)[nH]c(=O)c2Cl)C1 [Compound 283] | 5.37 nM |
| O=c1[nH]c(-c2ccnc(F)c2)nc(N2CCOC(COc3ccccc3)C2)c1Cl (stereo not drawn) [Compound 285] | 9.12 nM |
| Nc1ccc(Oc2nc(-c3ccnc(F)c3)[nH]c(=O)c2Cl)cc1 [Compound 287] | 19.1 nM |
| O=C1CCN(c2nc(-c3ccnc(F)c3)[nH]c(=O)c2Cl)CCN1 [Compound 288] | 0.933 nM |
| CN(Cc1ccccc1)c1nc(-c2ccnc(F)c2)[nH]c(=O)c1Cl [Compound 289] | 95.5 nM |
| O=c1[nH]c(-c2ccnc(F)c2)nc(NCc2ccccc2)c1Cl [Compound 290] | 355 nM |
| O=c1[nH]c(-c2ccnc(F)c2)nc(N2CCn3c(nnc3C(F)(F)F)C2)c1Cl [Compound 291] | 4.17 nM |
| O=c1[nH]c(-c2ccnc(F)c2)nc(N2CCOC3(CCOCC3)C2)c1Cl [Compound 292] | 11.5 nM |
| O=c1[nH]c(-c2ccnc(F)c2)nc(OCc2ccccc2)c1Cl [Compound 294] | 182 nM |
| O=c1[nH]c(-c2ccnc(F)c2)nc(N2CCN(c3nc[nH]n3)CC2)c1Cl [Compound 295] | 0.891 nM |
| O=c1[nH]c(-c2ccnc(F)c2)nc(N2CCCN(CC(F)(F)F)CC2)c1Cl [Compound 299] | 6.46 nM |

| SMILES | IC50 |
| --- | --- |
| CC1CN(C)CCCN1c1nc(-c2ccnc(F)c2)[nH]c(=O)c1Cl (stereo not drawn) [Compound 302] | 25.1 nM |
| O=c1[nH]c(-c2ccnc(F)c2)nc(OC2CCOCC2)c1Cl [Compound 305] | 2 nM |
| O=c1[nH]c(-c2ccnc(F)c2)nc(N2CCN[C@H](C3(O)CC3)C2)c1Cl [Compound 311] | 2.09 nM |
| N[C@@H]1CCN(c2nc(-c3ccnc(F)c3)[nH]c(=O)c2Cl)C1 [Compound 324] | 14.5 nM |
| NC1CN(c2nc(-c3ccnc(F)c3)[nH]c(=O)c2Cl)C1 [Compound 325] | 11.2 nM |
| CC(C)[C@@H]1CN(c2nc(-c3ccnc(F)c3)[nH]c(=O)c2Cl)CCN1 [Compound 327] | 6.61 nM |
| O=c1[nH]c(-c2ccnc(F)c2)nc(OC2CCNCC2)c1Cl [Compound 329] | 0.617 nM |
| O=c1[nH]c(-c2ccnc(F)c2)nc(O[C@@H]2CCCNC2)c1Cl [Compound 330] | 0.955 nM |
| O=c1[nH]c(-c2ccnc(F)c2)nc(O[C@H]2CCCNC2)c1Cl [Compound 331] | 9.55 nM |
| O=c1[nH]c(-c2ccnc(F)c2)nc(N2CCO[C@H]3CCCC[C@@H]32)c1Cl [Compound 332] | 6.31 nM |
| CC[C@H]1COCCN1c1nc(-c2ccnc(F)c2)[nH]c(=O)c1Cl [Compound 336] | 1.82 nM |
| C[C@@H]1COC[C@@H](C)N1c1nc(-c2ccnc(F)c2)[nH]c(=O)c1Cl [Compound 341] | 6.61 nM |
| C[C@H]1COC[C@H](C)N1c1nc(-c2ccnc(F)c2)[nH]c(=O)c1Cl [Compound 342] | 129 nM |
| C[C@@H]1COC[C@H](C)N1c1nc(-c2ccnc(F)c2)[nH]c(=O)c1Cl [Compound 343] | 6.76 nM |
| N#C[C@H]1CNCCN1c1nc(-c2ccnc(F)c2)[nH]c(=O)c1Cl [Compound 344] | 2.75 nM |
| O=c1[nH]c(-c2ccnc(F)c2)nc(N2CCn3cncc3C2)c1Cl [Compound 346] | 1.05 nM |
| CC(C)C[C@H]1CN2CCC[C@H]2CN1c1nc(-c2ccnc(F)c2)[nH]c(=O)c1Cl [Compound 349] | 83.2 nM |
| O=c1[nH]c(-c2ccnc(F)c2)nc(N2CCn3ccnc3C2)c1Cl [Compound 353] | 1.62 nM |
| O=c1[nH]c(-c2ccnc(F)c2)nc(N2CCc3nncn3CC2)c1Cl [Compound 354] | 2 nM |
| CC1c2nnc(C(F)(F)F)n2C(C)CN1c1nc(-c2ccnc(F)c2)[nH]c(=O)c1Cl (stereo not drawn) [Compound 356] | 10 nM |
| O=c1[nH]c(-c2ccnc(F)c2)nc(CN2CCOCC2)c1Cl [Compound 397, 5-chloro-2-(2-fluoro-4-pyridyl)-4-(morpholinomethyl)-1H-pyrimidin-6-one] | 219 nM |
| O=c1[nH]c(-c2ccnc(F)c2)nc(CN2CCNCC2)c1Cl [Compound 398] | 295 nM |
| NC(=O)CN1CCN(c2nc(-c3ccnc(F)c3)[nH]c(=O)c2Cl)CC(F)(F)C1 [Compound 414, 2-[4-[5-chloro-2-(2-fluoro-4-pyridyl)-6-oxo-1H-pyrimidin-4-yl]-6,6-difluoro-1,4-diazepan-1-yl]acetamide] | 0.891 nM |
